Source: patent US20210161134A1, “HERBICIDE AND METHOD OF APPLYING A HERBICIDE” (priority 2015, published 2021)
Like-named read-outs stand apart in the source and are kept apart here.

What was measured:
leafy spurge = assay: Killing of leafy spurge by amino acids; type: in vivo
Rush Skeleton weed = assay: Killing of rush skeleton weed by amino acid (FIG. 3); type: in vivo
morning glories = assay: Killing of morning glories by amino acid; type: in vivo
Field Bindweed = assay: Killing of field bindweed by amino acid (FIG. 4); type: in vivo
wild rubarb = assay: Killing of wild rhubarb by amino acid; type: in vivo
hounds tongue = assay: Killing of hounds tongue by amino acid; type: in vivo
common yarroen = assay: Killing of common yarrow by amino acid; type: in vivo
hoary alssum = assay: Killing of hoary alyssum by amino acid; type: in vivo
dandilions = assay: Killing of dandelions by amino acid herbicide; type: in vivo, dandelion
Canada thistle = assay: Killing of Canada thistle by amino acid herbicide (FIG. 1)
Spotted Knapweed = assay: Killing of spotted knapweed by amino acids; type: in vivo

SMILES | kill of the weed (leafy spurge) | kill of the weed (Rush Skeleton weed) | kill of the weed (Rush Skeleton weed; listed as Lysine) | kill of the weed (morning glories) | kill of the weed (Field Bindweed) | kill of the weed (wild rubarb) | kill of the weed (hounds tongue) | kill of the weed (common yarroen) | kill of the weed (hoary alssum) | kill of the weed (dandilions) | kill of the weed (Canada thistle) | kill of the weed (Canada thistle; listed as lysine) | kill of the weed (eurasian milfoil) | kill of the weed (Spotted Knapweed) | kill of the weed (poa anna) | kill of the weed (Kudzu) | kill of the weed (Kudzu; listed as Methionine)
NCCCC[C@H](N)C(=O)O [L-Lysine] | kill | kill | killed | kill | killed | kill | kill | kill | kill | kill | kill | kills the plant | – | – | – | – | –
CC(C)[C@H](N)C(=O)O [Valine] | – | – | – | – | – | – | killed | – | – | – | – | – | – | – | – | – | –
CSCC[C@H](N)C(=O)O [L-methionine] | – | – | – | – | – | – | – | – | – | – | kills the plant | – | kill | kill | kill | kill | killed
